In ChEMBL document CHEMBL6182935, “Discovery of a Novel Silybin Derivative for the Treatment of Metabolic Dysfunction-Associated Steatohepatitis” (J Med Chem, 2025):
Values after ≈ are worked out from the molar mass of the structure shown. Active and inactive are the calls of the source. The calls are words filed in the database; no cut-off is given here.

Assays:
[1] = tested on: Rattus norvegicus; assay: Hepatoprotective activity in male Sprague-Dawley rat model of CCl4-induced ALI assessed as reduction in yellowing of liver at 100 mg/kg, IG qd pretreated with compound for 7 days followed by CCl4 administration after 2 hrs post-compound treatment measured after 16 hrs post-CCl4 injection; assay type: functional, organism-based; conditions: time 186.0 hrs
[2] = Solubility in ethyl acetate incubated for 10 mins; assay type: physicochemical
[3] = Antioxidant activity assessed as clearing rate incubated for 5 mins in presence of pyrogallol by superoxide anion scavenging assay; assay type: functional
[4] = MRT (0 to infinity) in overnight-fasted male Sprague-Dawley rat at 150 mg/kg, po measured up to 12 hrs by HPLC analysis; assay type: ADME, organism-based; conditions: in vivo
[5] = tested on: Mus musculus; assay: Anti-MASH activity in HFD-fed CCl4-treated male C57BL/6 mouse assessed as reduction in hepatic triglyceride level at 150 mg/kg, po qd treated for 4 weeks by ELISA; assay type: functional, organism-based
[6] = Toxicity in male Sprague-Dawley rat model of CCl4-induced ALI assessed as animal growth at 100 mg/kg, IG qd pretreated with compound for 7 days followed by CCl4 administration after 2 hrs post-compound treatment measured after 16 hrs post-CCl4 injection; assay type: organism-based; conditions: in vivo, po, 186 h
[7] = tested on: L02; assay: Anti-MASH activity in palmitate/oleate-stimulated human LO2 cells assessed as reduction in SCD mRNA level at 10 to 40 uM incubated for 24 hrs by q-PCR analysis; assay type: functional, cell-based; conditions: dose 10-40 µM
[8] = tested on: Mus musculus; assay: Anti-MASH activity in HFD-fed CCl4-treated male C57BL/6 mouse assessed as restoration of liver GSH-Px level at 150 mg/kg, po qd treated for 4 weeks; assay type: functional, organism-based
[9] = tested on: Rattus norvegicus; assay: Hepatoprotective activity in male Sprague-Dawley rat model of CCl4-induced ALI assessed as reduction in MDA level at 100 mg/kg, IG qd pretreated with compound for 7 days followed by CCl4 administration after 2 hrs post-compound treatment measured after 16 hrs post-CCl4 injection; assay type: functional, organism-based; conditions: time 186.0 hrs
[10] = tested on: Mus musculus; assay: Anti-MASH activity in HFD-fed CCl4-treated male C57BL/6 mouse assessed as reduction in serum cholesterol level at 150 mg/kg, po qd treated for 4 weeks; assay type: functional, organism-based
[11] = tested on: Mus musculus; assay: Anti-MASH activity in HFD-fed CCl4-treated male C57BL/6 mouse assessed as reduction in alpha-SMA in liver at 150 mg/kg, po qd treated for 4 weeks by IHC analysis; assay type: functional, organism-based
[12] = tested on: Mus musculus; assay: Anti-MASH activity in HFD-fed CCl4-treated male C57BL/6 mouse assessed as restoration of serum ALT level at 150 mg/kg, po qd treated for 4 weeks; assay type: functional, organism-based
[13] = Tmax in overnight-fasted male Sprague-Dawley rat at 150 mg/kg, po measured up to 12 hrs by HPLC analysis; assay type: ADME, organism-based; conditions: in vivo
[14] = Toxicity in male Sprague-Dawley rat model of CCl4-induced ALI assessed as body weight change at 100 mg/kg, IG qd pretreated with compound for 7 days followed by CCl4 administration after 2 hrs post-compound treatment measured after 16 hrs post-CCl4 injection; assay type: organism-based; conditions: in vivo, po, 186 h
[15] = tested on: Hepatocyte; assay: Anti-MASH activity in palmitate/oleate-stimulated mouse primary hepatocytes assessed as reduction in lipid accumulation by Oil Red O staining assay; assay type: functional, cell-based
[16] = tested on: Rattus norvegicus; assay: Hepatoprotective activity in male Sprague-Dawley rat model of CCl4-induced ALI assessed as restoration of SOD level at 100 mg/kg, IG qd pretreated with compound for 7 days followed by CCl4 administration after 2 hrs post-compound treatment measured after 16 hrs post-CCl4 injection; assay type: functional, organism-based; conditions: time 186.0 hrs
[17] = tested on: L02; assay: Anti-inflammatory activity in CCl4-stimulated human LO2 cells assessed as reduction in IL-6 mRNA level at 1 uM; assay type: functional, cell-based
[18] = tested on: Hepatocyte; assay: Anti-MASH activity in palmitate/oleate-stimulated mouse primary hepatocytes assessed as reduction in ACACA mRNA level by q-PCR analysis; assay type: functional, cell-based
[19] = tested on: Rattus norvegicus; assay: Hepatoprotective activity in male Sprague-Dawley rat model of CCl4-induced ALI assessed as reduction in white granular fat in liver at 100 mg/kg, IG qd pretreated with compound for 7 days followed by CCl4 administration after 2 hrs post-compound treatment measured after 16 hrs post-CCl4 injection; assay type: functional, organism-based; conditions: time 186.0 hrs
[20] = tested on: Mus musculus; assay: Anti-MASH activity in HFD-fed CCl4-treated male C57BL/6 mouse assessed as reduction in fat dyslipidemia at 150 mg/kg, po qd treated for 4 weeks; assay type: functional, organism-based
[21] = tested on: Mus musculus; assay: Anti-MASH activity in HFD-fed CCl4-treated male C57BL/6 mouse assessed as reduction in collagen I in liver at 150 mg/kg, po qd treated for 4 weeks by IHC analysis; assay type: functional, organism-based
[22] = tested on: LX-2; assay: Anti-MASH activity in TGF-beta-activated-human LX2 cells assessed as reduction in fibronectin level incubated for 48 hrs by Western blot analysis; assay type: functional, cell-based; conditions: dose 10-40 µM
[23] = tested on: Mus musculus; assay: Anti-MASH activity in HFD-fed CCl4-treated male C57BL/6 mouse assessed as reduction in serum triglyceride level at 150 mg/kg, po qd treated for 4 weeks; assay type: functional, organism-based
[24] = Terminal half life in overnight-fasted male Sprague-Dawley rat at 150 mg/kg, po measured up to 12 hrs by HPLC analysis; assay type: ADME, organism-based; conditions: in vivo, read-out: beta t1/2 (converted)
[25] = Apparent clearance during terminal phase in overnight-fasted male Sprague-Dawley rat at 150 mg/kg, po measured up to 12 hrs by HPLC analysis; assay type: ADME, organism-based; conditions: in vivo, read-out: CLz/F (converted)
[26] = Antioxidant activity assessed as inhibition of superoxide anion scavenging activity incubated for 5 mins in presence of pyrogallol; assay type: functional
[27] = tested on: L02; assay: Anti-MASH activity in palmitate/oleate-stimulated human LO2 cells assessed as reduction in FASN mRNA level at 10 to 40 uM incubated for 24 hrs by q-PCR analysis; assay type: functional, cell-based; conditions: dose 10-40 µM
[28] = tested on: L02; assay: Anti-MASH activity in CCl4-stimulated human LO2 cells assessed as increase in cell viability up to 10 uM incubated for 24 hrs by MTT assay; assay type: functional, cell-based
[29] = tested on: Hepatocyte; assay: Anti-inflammatory activity in CCl4-stimulated mouse primary hepatocytes assessed as reduction in TNF-alpha mRNA level at 1 uM; assay type: functional, cell-based
[30] = Solubility in methanol incubated for 10 mins; assay type: physicochemical
[31] = tested on: Mus musculus; assay: Anti-MASH activity in HFD-fed CCl4-treated male C57BL/6 mouse assessed as restoration of serum AST level at 150 mg/kg, po qd treated for 4 weeks; assay type: functional, organism-based
[32] = tested on: Mus musculus; assay: Anti-MASH activity in HFD-fed CCl4-treated male C57BL/6 mouse assessed as reversal of volume of liver at 150 mg/kg, po qd treated for 4 weeks; assay type: functional, organism-based
[33] = Antioxidant activity assessed as clearing rate incubated for 30 mins under dark condition by DPPH free radical scavenging assay; assay type: functional
[34] = Cmax in overnight-fasted male Sprague-Dawley rat at 150 mg/kg, po measured up to 12 hrs by HPLC analysis; assay type: ADME, organism-based; conditions: in vivo
[35] = tested on: Hepatocyte; assay: Anti-MASH activity in CCl4-stimulated mouse primary hepatocytes assessed as reduction in ROS level at 2.5 to 10 uM by DCFH-DA staining assay; assay type: functional, cell-based; conditions: dose 2.5-10 µM

**Q.** Which results are given for `COc1cc([C@@H]2Oc3cc([C@H]4Oc5cc(O)cc(O)c5C(=O)[C@@H]4O)ccc3OC2CS)ccc1O` (stereo not given in full)?
**A.** Activity [1]: Active; solubility [2]: > 1000 mg/mL; Activity [3]: 82.9%; MRT inf [4]: 3.51 h; Activity [5]: Active; Activity Was More Significant Than Silybin; Activity [6]: Non-toxic; Activity [7]: Active; Activity [8]: Active; Activity [9]: Active; Exhibited Better Efficacy Than Silybin; Activity [10]: Active; Activity [11]: Active; Activity [12]: Active; Activity Was Better Than Silybin; Tmax [13]: 1.99 h; Activity [14]: Non-toxic; Activity [15]: Active; Activity [16]: Active; Exhibited Better Efficacy Than Silybin; Activity [17]: Active; Activity [18]: Active; Activity [19]: Active; Activity [20]: Active; Activity [21]: Active; Activity [22]: Dose-dependent-effect; Activity [23]: Active; half-life [24]: 1.55 h; CL/F [25]: 51.3 mL/min; IC50 [26]: 28.1 µM; Activity [27]: Active; Activity [28]: Active; Activity [29]: Active; solubility [30]: 913 mg/mL (≈ 1830 mM); Activity [31]: Active; Activity Was Better Than Silybin; Activity [32]: Active; Activity Better Than Silybin; Activity [33]: 92.9%; Cmax [34]: 4.08 µg/mL; Activity [35]: Active
